The structures appear in SMILES notation. Bounds are passed on as bounds.

This assay relates to p-IKKa levels in L363 (NIK translocated multiple myeloma) cells. Briefly: Assay 2: Effect of compounds on p-IKKa levels in L363 (NIK translocated multiple myeloma) cells. Format: cell-based. The settings on record: Homo sapiens, L-363, 6 h, read-out: Assay 2 IC50 (nM), p-IKKa (Ser 176/180) in BAFF stimulated L363 cells with MG132, 6 h; average if tested more than once. As for the experimental part:
Assay 2: Effect of Compounds on p-IKKa Levels in L363 (NIK Translocated Multiple Myeloma) Cells
All compounds tested were dissolved and serially diluted in DMSO, 1:3 dilution for 11 points in an Echo compatible plate. 100% DMSO was added to columns 12 and 24 of the plate to serve as high and low signal controls. This compound plate was used to spot 20 nL of compound or DMSO into a Greiner 384 well TC plate (781080). The final DMSO concentration was 0.3% (v/v) in cell assays. Human L363 cells (ATCC) were cultured in RPM11640 medium supplemented with GlutaMax, non-essential amino acids, sodium pyruvate and 10% fetal bovine serum. Cells were routinely maintained at densities of 0.2×10^6 cells per ml—2×10^6 cells per mL at 37° C. in a humidified 5% CO2 atmosphere incubator. Cells were passaged twice a week splitting back to obtain the low density. The day before the assay, cells were washed twice in HBSS (Hank's Balanced Salt Solution), resuspended in Dulbecco's Modified Eagle Medium (DMEM)+0.5% IgG and protease free BSA (Jackson Immuno Research Laboratories), +/−250 ng/ml recombinant human B-cell activating factor (BAFF/BLyS/TNFSF13B) and incubated overnight at 37° C. in a humidified 5% CO2 atmosphere (bulk stimulation with or without BAFF). The next day, the cell concentration was adjusted to 1×10^7 cells/ml in DMEM+/−250 ng/ml BAFF +/−10 μM MG132 and plated at 10 μl/well into compound or DMSO spotted 384 well TC plates. Seeded cells were incubated at 37° C. in a humidified 5% CO2 atmosphere for 6 h. After 6 h, the plates were removed from the incubator and cell lysis was achieved by the addition of 2.5 μl 5×lysis buffer containing protease and phosphatase inhibitors, followed by shaking on a plate shaker at room temperature for 15 min. At the end of this incubation, lysed cells were sequentially treated and incubated with acceptor and donor bead mixes according to the manufacturer's protocol for a 1 plate/2-incubation suspension cell assay (AlphaLISA SureFire Ultra p-IKKa (Ser 176/180) Assay Kit (Perkin Elmer). Plates were read using an EnVision Multilabel Plate Reader (Perkin Elmer). Within an experiment, a concentration response curve for each compound was run in duplicate. The signal obtained in the test wells was normalized using high signal (BAFF stimulated cells, DMSO, MG132) and low signal (unstimulated cells, DMSO) controls. To determine the IC50, a sigmoidal curve was fitted to the plot of % inhibition versus Log10 compound concentration.
For the compound `CN1CC[C@@](O)(c2cc(-c3cccc(-c4ccnc(NC(c5cnn(C)c5)C(F)(F)F)n4)n3)no2)C1=O` (mixture of isomers) [Example 96, (R)-3-Hydroxy-1-methyl-3-(3-(6-(2-(((RS)-2,2,2-trifluoro-1-(1-methyl-1H-pyrazol-4-yl)ethyl)amino)pyrimidin-4-yl)pyridin-2-yl)isoxazol-5-yl)pyrrolidin-2-one], the IC50 was in the range of 50 to 500 nM.
For `CN1CC[C@@](O)(c2cc(-c3cccc(-c4ccnc(NC5CCN(C6CC6)C5)n4)n3)no2)C1=O` (mixture of isomers) [Example 448, (3R)-3-(3-(6-(2-((1-Cyclopropylpyrrolidin-3-yl)amino)pyrimidin-4-yl)pyridin-2-yl)isoxazol-5-yl)-3-hydroxy-1-methylpyrrolidin-2-one], the IC50 is more than 500 nM.
For the compound `CN1CC[C@@](O)(c2cc(-c3cccc(-c4ccnc(NC5CCSC5)n4)n3)no2)C1=O` (mixture of isomers) [Example 456, (3R)-3-Hydroxy-1-methyl-3-(3-(6-(2-((tetrahydrothiophen-3-yl)amino)pyrimidin-4-yl)pyridin-2-yl)isoxazol-5-yl)pyrrolidin-2-one], the IC50 lay within 50 to 500 nM.
Then `CN1CC[C@@](O)(c2cc(-c3cccc(-c4ccnc(NC5COCC(F)(F)C5)n4)n3)no2)C1=O` (mixture of isomers) [Example 459, (3R)-3-(3-(6-(2-((5,5-Difluorotetrahydro-2H-pyran-3-yl)amino)pyrimidin-4-yl)pyridin-2-yl)isoxazol-5-yl)-3-hydroxy-1-methylpyrrolidin-2-one], with 50 to 500 nM; and `COC(CNc1nccc(-c2cccc(-c3cc([C@]4(O)CCN(C)C4=O)on3)n2)n1)C(F)(F)F` (mixture of isomers) [Example 461, (3R)-3-Hydroxy-1-methyl-3-(3-(6-(2-((3,3,3-trifluoro-2-methoxypropyl)amino)pyrimidin-4-yl)pyridin-2-yl)isoxazol-5-yl)pyrrolidin-2-one], with 50 to 500 nM; and `CN1CC[C@@](O)(c2cc(-c3cccc(-c4ccnc(NC5COCC5(F)F)n4)n3)no2)C1=O` (mixture of isomers) [Example 465, (3R)-3-(3-(6-(2-((4,4-Difluorotetrahydrofuran-3-yl)amino)pyrimidin-4-yl)pyridin-2-yl)isoxazol-5-yl)-3-hydroxy-1-methylpyrrolidin-2-one], with 50 to 500 nM.
On to `CN1CC[C@@](O)(c2cc(-c3cccc(-c4ccnc(NC5CCOc6ncccc65)n4)n3)no2)C1=O` (mixture of isomers) [Example 472, (3R)-3-(3-(6-(2-((3,4-Dihydro-2H-pyrano[2,3-b]pyridin-4-yl)amino)pyrimidin-4-yl)pyridin-2-yl)isoxazol-5-yl)-3-hydroxy-1-methylpyrrolidin-2-one], for which the IC50 fell in the range of 50 to 500 nM.
Take `CC1CCCCC1Nc1nccc(-c2cccc(-c3cc([C@]4(O)CCN(C)C4=O)on3)n2)n1` (mixture of isomers) [Example 341, (3R)-3-Hydroxy-1-methyl-3-(3-(6-(2-(((rac)-2-methylcyclohexyl)amino)pyrimidin-4-yl)pyridin-2-yl)isoxazol-5-yl)pyrrolidin-2-one]: the IC50 was 50 to 500 nM.
`CC1CC(Nc2nccc(-c3cccc(-c4cc([C@]5(O)CCN(C)C5=O)on4)n3)n2)CO1` (mixture of isomers) [Example 343, (R)-3-Hydroxy-1-methyl-3-(3-(6-(2-(((rac)-5-methyltetrahydrofuran-3-yl)amino)pyrimidin-4-yl)pyridin-2-yl)isoxazol-5-yl)pyrrolidin-2-one]: the IC50 was 50 to 500 nM.
Turning to `C[C@@H](Nc1nccc(-c2cccc(-c3cc([C@]4(O)CCN(C)C4=O)on3)n2)n1)c1ccnn1C` (single isomer, unassigned) [Example 67], the IC50 was in the range of 50 to 500 nM.
Regarding `C[C@H](Nc1nccc(-c2cccc(-c3cc([C@]4(O)CCN(C)C4=O)on3)n2)n1)c1ccnn1C` (single isomer, unassigned) [Example 68], the IC50 lay within 50 to 500 nM.
`C[C@@H](Nc1nccc(-c2cccc(-c3cc([C@]4(O)CCN(C)C4=O)on3)n2)n1)c1cnn(C)c1` (single isomer, unassigned) [Example 69]: the IC50 was less than 50 nM.
